# Article PMC6440977, “Nucleoside analogue activators of cyclic AMP-independent protein kinase A of Trypanosoma” (Nature Communications, 2019)
# “And” between values parts separate entries of the source, which are not always exact repeats. Identical values can stand only once. “Also recorded” adds a separate entry of the source. Like-named read-outs stand apart in the source and are kept apart here.
# How the values were obtained:
# T. brucei BSF cells (WT) = assay: Alamar blue cell viability assay, wild type; conditions: Trypanosoma brucei, 72 h, read-out: IC50 growth WT;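 further: trypanosomes seeded at 5×10^3 per ml and grown 72 h with compound, then resazurin 0.5 mM added for 4 h as the viability read-out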
# T. brucei PKA = T. brucei PKA (Trypanosoma brucei brucei, UniProt Q9GU80); assay: In vivo PKA reporter assay (VASP Ser-157 phosphorylation, western blot); assay type: cell-based; conditions: for EC50: read-out: EC50 in vivo PKA assay, VASP reporter, 15 min treatment, mean ± SD; for effect on in vivo PKA activity (VASP phosphorylation), in words: wild type background; for % VASP phosphorylation: CpdA 10 µM, replicates;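 on % VASP phosphorylation: Phosphorylated VASP as percent of total VASP band signal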;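 on all read-outs here: T. brucei cells expressing human VASP as heterologous PKA substrate, compound exposure at 37 °C, western blot of phospho (50 kDa) versus unphosphorylated (46 kDa) VASP band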
# Chain of T. brucei PKA (Q38DS1 entry or part of it): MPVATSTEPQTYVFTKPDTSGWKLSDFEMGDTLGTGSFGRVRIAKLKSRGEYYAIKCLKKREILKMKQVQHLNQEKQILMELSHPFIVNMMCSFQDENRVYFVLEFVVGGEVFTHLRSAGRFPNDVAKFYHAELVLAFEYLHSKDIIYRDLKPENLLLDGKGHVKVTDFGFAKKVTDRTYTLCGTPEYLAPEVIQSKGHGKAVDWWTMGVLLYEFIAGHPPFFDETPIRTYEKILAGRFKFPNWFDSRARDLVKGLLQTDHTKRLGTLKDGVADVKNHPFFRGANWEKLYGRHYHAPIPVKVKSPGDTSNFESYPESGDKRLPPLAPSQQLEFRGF
# Chain of T. brucei PKA (Q38DR5 entry or part of it, further chain): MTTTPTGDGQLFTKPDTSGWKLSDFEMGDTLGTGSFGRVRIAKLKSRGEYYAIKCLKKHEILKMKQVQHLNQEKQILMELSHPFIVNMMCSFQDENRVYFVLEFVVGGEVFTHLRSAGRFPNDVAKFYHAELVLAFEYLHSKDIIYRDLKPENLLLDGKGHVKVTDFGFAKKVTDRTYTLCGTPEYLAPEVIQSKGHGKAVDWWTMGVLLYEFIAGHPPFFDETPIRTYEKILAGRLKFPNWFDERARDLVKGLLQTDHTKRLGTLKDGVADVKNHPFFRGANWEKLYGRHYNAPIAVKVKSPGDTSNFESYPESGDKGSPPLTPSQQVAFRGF
# Chain of T. brucei PKA (Q9GU80 entry or part of it): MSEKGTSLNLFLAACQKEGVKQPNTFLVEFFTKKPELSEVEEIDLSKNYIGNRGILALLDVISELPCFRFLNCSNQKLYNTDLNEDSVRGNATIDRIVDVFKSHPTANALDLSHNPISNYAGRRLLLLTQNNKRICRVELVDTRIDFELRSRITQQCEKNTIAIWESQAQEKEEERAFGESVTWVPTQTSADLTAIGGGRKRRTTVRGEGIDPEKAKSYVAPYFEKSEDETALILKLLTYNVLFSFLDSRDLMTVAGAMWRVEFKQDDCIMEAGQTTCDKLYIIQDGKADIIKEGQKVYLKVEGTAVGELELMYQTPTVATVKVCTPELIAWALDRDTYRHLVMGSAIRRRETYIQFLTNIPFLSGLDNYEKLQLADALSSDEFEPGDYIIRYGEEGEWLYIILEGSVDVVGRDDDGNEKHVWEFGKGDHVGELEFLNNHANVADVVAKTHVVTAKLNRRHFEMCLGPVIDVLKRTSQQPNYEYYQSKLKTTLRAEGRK
# [1] = biological target: T. brucei PKAR-PKAC1 holoenzyme (Trypanosoma brucei, UniProt Q9GU80); assay: biochemical; assay type: biochemical; conditions: for In vitro kinase assay: technical replicates
# Chain of T. brucei PKAR-PKAC1 holoenzyme (Q38DR5 entry or part of it): as the sequence (Q38DR5 entry or part of it, further chain) above
# [2] = system: T. brucei ∆pkar/∆pkar (pkar KO) cells; assay: microbe, parasite or virus in culture; assay type: cell-based, Trypanosoma brucei; conditions: Trypanosoma brucei, 72 h, read-out: IC50 growth pkar KO
# [3] = system: T. brucei PKA holoenzyme (HA-PKAC2); assay type: biochemical, Trypanosoma brucei; conditions: control without cyclic nucleotide, 5 µM PKI(5-24)
# [4] = system: T. brucei PKA holoenzyme (Ty1-PKAC1); assay type: biochemical, Trypanosoma brucei; conditions: for in vitro kinase assay [CPM] / in vitro kinase assay [CPM], PKI: 5 µM PKI(5-24); for in vitro kinase assay [CPM], PKI: control without cyclic nucleotide
# [5] = system: T. brucei PKA holoenzyme (PKAR-Ty1); assay type: biochemical, Trypanosoma brucei; conditions: control without cyclic nucleotide, 5 µM PKI(5-24)
# intracellular cAMP = assay: Cyclic AMP measurement (intracellular cAMP content); assay type: cell-based, Trypanosoma brucei; conditions: for pmol cAMP / 10^9 cells: independent replicates
# human PKARIα = biological target: T1, human PKARIα (Homo sapiens, UniProt P10644); assay: Binding by isothermal titration calorimetry (ITC)
# T1 construct: The full length ORFs (amplified with primers introducing the respective); 6xHis followed by TEV site (N); made in house; host or cells: E. coli Rosetta D3
# T1 sequence (P10644 whole entry): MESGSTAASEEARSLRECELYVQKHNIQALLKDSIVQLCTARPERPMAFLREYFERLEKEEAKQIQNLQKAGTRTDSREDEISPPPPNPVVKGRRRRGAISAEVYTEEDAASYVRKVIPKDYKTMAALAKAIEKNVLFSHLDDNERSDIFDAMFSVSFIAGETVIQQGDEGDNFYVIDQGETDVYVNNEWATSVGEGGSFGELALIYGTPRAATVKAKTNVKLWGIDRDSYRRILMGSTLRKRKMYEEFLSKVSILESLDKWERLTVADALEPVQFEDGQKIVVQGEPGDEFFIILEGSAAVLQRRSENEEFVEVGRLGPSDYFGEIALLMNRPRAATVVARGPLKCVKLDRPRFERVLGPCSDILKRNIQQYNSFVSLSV
# T. brucei PKAR(199–499) = T. brucei PKAR(199–499) (Trypanosoma brucei, UniProt Q9GU80); assay: biochemical; assay type: binding; set-up: Thermodynamics (ITC) -TΔS / Thermodynamics (ITC) ΔG / Thermodynamics (ITC) ΔH: unit: kcal/mol
# Chain of T. brucei PKAR(199–499) (Q9GU80 entry or part of it): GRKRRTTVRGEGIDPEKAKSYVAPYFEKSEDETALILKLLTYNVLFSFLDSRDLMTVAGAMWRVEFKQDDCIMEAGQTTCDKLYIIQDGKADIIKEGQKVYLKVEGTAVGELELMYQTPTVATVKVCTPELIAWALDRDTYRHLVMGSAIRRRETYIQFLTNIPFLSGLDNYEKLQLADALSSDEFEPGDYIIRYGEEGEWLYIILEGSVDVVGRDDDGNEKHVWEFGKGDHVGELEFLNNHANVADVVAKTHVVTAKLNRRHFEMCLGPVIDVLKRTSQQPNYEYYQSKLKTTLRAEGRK
# [6] = system: cAMP release into the medium; assay: Fraction of cAMP in cell supernatant versus total cell lysate; conditions: CpdA treatment 10 µM, 15 min
compound,measurement,setting,value
"NC(=O)c1cn([C@@H]2O[C@H](CO)[C@@H](O)[C@H]2O)c2ncnc(N)c12 [Sangivamycin, 7-Carboxamido-7-deazaadenosine]",IC50,T. brucei BSF cells (WT),713 ± 40 nM
same,EC50,T. brucei PKA,39300 ± 5600 nM
same,EC50,T. brucei PKA; listed as sangivamycin,39000 nM
same,EC50,[1],10800 nM
same,In vitro kinase assay,[1]; 0.049 µM,0.15 U/ml and 0.17 U/ml
same,In vitro kinase assay,[1]; 0.098 µM,0.15 U/ml
same,In vitro kinase assay,[1]; 0.195 µM,0.19 U/ml and 0.18 U/ml
same,In vitro kinase assay,[1]; 0.391 µM,0.2 U/ml and 0.15 U/ml
same,In vitro kinase assay,[1]; 0.781 µM,0.17 U/ml
same,In vitro kinase assay,[1]; 1.563 µM,0.2 U/ml and 0.16 U/ml
same,In vitro kinase assay,[1]; 3.125 µM,0.22 U/ml and 0.24 U/ml
same,In vitro kinase assay,[1]; 6.25 µM,0.29 U/ml and 0.28 U/ml
same,In vitro kinase assay,[1]; 12.5 µM,0.33 U/ml and 0.31 U/ml
same,In vitro kinase assay,[1]; 25 µM,0.44 U/ml and 0.4 U/ml
same,In vitro kinase assay,[1]; 50 µM,0.44 U/ml
same,IC50,[2],1550 ± 171 nM
PKI(5–24),"in vitro kinase assay [CPM], PKI",[3],483.2 CPM
same,in vitro kinase assay [CPM],[4]; Ty1-PKAC1#1,1999.9 CPM
same,in vitro kinase assay [CPM],[4]; Ty1-PKAC1#2,1386.5 CPM
same,in vitro kinase assay [CPM],[4]; Ty1-PKAC1-dead#11,834.7 CPM
same,in vitro kinase assay [CPM],[4]; Ty1-PKAC1-dead#12,571.7 CPM
same,in vitro kinase assay [CPM],[4]; Ty1-PKAC1-dead#14,1493.5 CPM
same,in vitro kinase assay [CPM],[4]; pull down from WT cells (negative control),398.6 CPM
same,"phosphorylation of kemptide, in words",[4]; 5 µM inhibitor,inhibited
same,"in vitro kinase assay [CPM], PKI",[4]; Supp Fig 3b,963.87 CPM
same,"in vitro kinase assay [CPM], PKI",[4]; Supp Fig 3c,528.13 CPM
same,"in vitro kinase assay [CPM], PKI",[5],1399.6 CPM
OCCN(CCO)c1nc(N2CCCCC2)c2nc(N(CCO)CCO)nc(N3CCCCC3)c2n1 [Dipyridamole],IC50,T. brucei BSF cells (WT),9900 ± 1000 nM
same,"induction of VASP phosphorylation in pkar knock out, in words",T. brucei PKA; homozygous deletion of PKAR,no induction
same,EC50,T. brucei PKA,22400 ± 4200 nM
same,"effect on in vivo PKA activity (VASP phosphorylation), in words",T. brucei PKA,dose- and time-dependent induction
same,"effect in the in vitro kinase assay, in words",[1],did not have any effect; also recorded: No effect
same,"change of intracellular cAMP content, in words",intracellular cAMP; 100 µM,moderate increase
same,pmol cAMP / 10^9 cells,"intracellular cAMP; 100 µM, 15 min, listed as Dip",61.8873 pmol cAMP / 10^9 cells and 63.0147 pmol cAMP / 10^9 cells and 44.8294 pmol cAMP / 10^9 cells and 64.5236 pmol cAMP / 10^9 cells and 80.946 pmol cAMP / 10^9 cells and 55.0958 pmol cAMP / 10^9 cells
same,pmol cAMP / 10^9 cells,"intracellular cAMP; 100 µM, 90 min, listed as Dip",47.769 pmol cAMP / 10^9 cells and 56.3468 pmol cAMP / 10^9 cells and 59.8493 pmol cAMP / 10^9 cells and 40.4717 pmol cAMP / 10^9 cells and 46.5418 pmol cAMP / 10^9 cells and 46.5962 pmol cAMP / 10^9 cells
same,IC50,[2],16300 ± 1800 nM
"Nc1ncnc2c1c(I)cn2[C@@H]1O[C@H](CO)[C@@H](O)[C@H]1O [5-I-Tu, 7-Iodo-7-deazaadenosine]",IC50,T. brucei BSF cells (WT),330 ± 38 nM
same,"binding to purified human PKARIα, in words",human PKARIα,did not bind
same,EC50,T. brucei PKA,390 ± 20 nM
same,Kd,T. brucei PKAR(199–499),32 ± 9 nM
same,Thermodynamics (ITC) -TΔS,T. brucei PKAR(199–499); independent replicates,6.36 and 3.65 and 4.67
same,Thermodynamics (ITC) ΔG,T. brucei PKAR(199–499); independent replicates,-10.1 and -10.5
same,Thermodynamics (ITC) ΔH,T. brucei PKAR(199–499); independent replicates,-16.5 and -14.1 and -14.8
same,EC50,[1],203 ± 79 nM
same,In vitro kinase assay,[1]; 0.001 µM,0.15 U/ml and 0.13 U/ml
same,In vitro kinase assay,[1]; 0.05 µM,0.22 U/ml and 0.25 U/ml
same,In vitro kinase assay,[1]; 0.1 µM,0.4 U/ml and 0.36 U/ml
same,In vitro kinase assay,[1]; 0.2 µM,0.45 U/ml
same,In vitro kinase assay,[1]; 0.39 µM,0.75 U/ml and 0.61 U/ml
same,In vitro kinase assay,[1]; 0.78 µM,0.77 U/ml and 0.8 U/ml
same,In vitro kinase assay,[1]; 1.56 µM,0.79 U/ml and 0.91 U/ml
same,In vitro kinase assay,[1]; 3.13 µM,0.81 U/ml and 0.96 U/ml
same,IC50,[2],346 ± 41 nM
"Nc1ncnc2c1c(Br)cn2[C@@H]1O[C@H](CO)[C@@H](O)[C@H]1O [5-Br-Tu, 7-Bromo-7-deazaadenosine]",IC50,T. brucei BSF cells (WT),874 ± 122 nM
same,EC50,T. brucei PKA,625 ± 66 nM
same,EC50,[1],1700 ± 1400 nM
same,In vitro kinase assay,[1]; 0.049 µM,0.15 U/ml and 0.17 U/ml
same,In vitro kinase assay,[1]; 0.098 µM,0.25 U/ml and 0.22 U/ml
same,In vitro kinase assay,[1]; 0.195 µM,0.27 U/ml and 0.24 U/ml
same,In vitro kinase assay,[1]; 0.391 µM,0.37 U/ml and 0.39 U/ml
same,In vitro kinase assay,[1]; 0.781 µM,0.53 U/ml and 0.48 U/ml
same,In vitro kinase assay,[1]; 1.563 µM,0.72 U/ml and 0.59 U/ml
same,In vitro kinase assay,[1]; 3.125 µM,0.85 U/ml and 0.72 U/ml
same,In vitro kinase assay,[1]; 6.25 µM,0.89 U/ml and 1.03 U/ml
same,In vitro kinase assay,[1]; 12.5 µM,1.09 U/ml and 1.13 U/ml
same,In vitro kinase assay,[1]; 25 µM,1.41 U/ml and 1.21 U/ml
same,In vitro kinase assay,[1]; 50 µM,1.29 U/ml and 1.22 U/ml
same,IC50,[2],1010 ± 95 nM
COc1ccc(C2=NN(C3CCCCCC3)C(=O)[C@@H]3CC=CC[C@H]23)cc1OCCCCOc1ccc(-c2nn[nH]n2)cc1 [CpdA],% VASP phosphorylation,T. brucei PKA; 0 min,37.2015% and 33.1548% and 30.9406%
same,% VASP phosphorylation,T. brucei PKA; 5 min,28.9269% and 25.7882% and 23.4179%
same,% VASP phosphorylation,T. brucei PKA; 10 min,28.8598% and 22.1225% and 21.1026%
same,% VASP phosphorylation,T. brucei PKA; 15 min,26.7433% and 23.5931% and 18.9766%
same,"effect on in vivo PKA activity (VASP phosphorylation), in words",T. brucei PKA,did not elicit any change
same,increase of intracellular cAMP content,"intracellular cAMP; 10 µM, 15 min",up to 600 fold
same,pmol cAMP / 10^9 cells,"intracellular cAMP; 10 µM, 15 min",7046.18 pmol cAMP / 10^9 cells and 6980.91 pmol cAMP / 10^9 cells and 7465.44 pmol cAMP / 10^9 cells and 6294.38 pmol cAMP / 10^9 cells and 9321.55 pmol cAMP / 10^9 cells and 2818.14 pmol cAMP / 10^9 cells
same,"% cAMP, total, mean","intracellular cAMP; CpdA treatment 10 µM, 15 min, total cAMP content set to 100%, mean of technical replicates",94.1035%
same,"% cAMP, total","intracellular cAMP; CpdA treatment 10 µM, 15 min, total cAMP content set to 100%, technical replicates",100% and 88.2071%
same,"nM cAMP, total","intracellular cAMP; CpdA treatment 10 µM, 15 min, total, technical replicates",1891.66 nM and 1668.58 nM
same,"% cAMP, supernatant, mean",[6]; mean of technical replicates,3.201%
same,"nM cAMP, supernatant",[6]; technical replicates,74.7051 nM and 46.4145 nM
same,"% cAMP, supernatant",[6]; total cAMP content set to 100%,3.949% and 2.454%
